Experimental data reported in patent US10294202B2, “Pyrrolidinones as herbicides” (FMC Corporation, priority 2013, dated 2019).

Key:
giant foxtail = assay: Test A pre-/postemergence herbicide test; type: in vivo, Setaria faberii
Outline: (§1)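 Approximately 10 days after treatment in the greenhouse, plants were compared with untreated controls and given a 0–100 visual injury rating. Applications: preemergence directed soil spray; postemergence on 2–10 cm plants at the one- to two-leaf stage.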

corn = assay: Test A pre-/postemergence herbicide test; type: in vivo, Zea mays
Outline: as §1

rice = assay: Test B flooded paddy test; type: in vivo, Oryza sativa; conditions: Flood, scale of 0 to 100 where 0 is no effect and 100 is complete control
Outline: (§2)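 Visual ratings from 0, meaning no effect, up to 100, meaning complete control, were made by comparison with untreated controls 13 to 15 days after treatment. Test compounds went straight into floodwater standing 3 cm over the soil of pots holding 2-leaf seedlings.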

sedge, umbrella = assay: Test B flooded paddy test; type: in vivo, Cyperus difformis; conditions: Flood, scale of 0 to 100 where 0 is no effect and 100 is complete control
Outline: as §2

ducksalad = assay: Test B flooded paddy test; type: in vivo, Heteranthera limosa; conditions: Flood, scale of 0 to 100 where 0 is no effect and 100 is complete control
Outline: as §2

wheat (winter wheat) = assay: Test C pre-/postemergence herbicide test; type: in vivo, Triticum aestivum; conditions: for Wheat plant response rating: scale 0 to 100, 0 is no effect and 100 is complete control
Outline: (§3)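 Plants grown and held in a greenhouse for 13 to 15 days post-spray, then rated 0–100 by visual comparison with controls. Pre treatments targeted seeds in loam and sand; post treatments targeted 1- to 4-leaf plants in peat-based potting medium.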

crabgrass, large = assay: Test C pre-/postemergence herbicide test; type: in vivo, Digitaria sanguinalis; conditions: for Crabgrass, Large plant response rating: scale 0 to 100, 0 is no effect and 100 is complete control
Outline: as §3

johnsongrass = assay: Test C pre-/postemergence herbicide test; type: in vivo, Sorghum halepense; conditions: for Johnsongrass plant response rating: scale 0 to 100, 0 is no effect and 100 is complete control
Outline: as §3

lambsquarters = assay: Test C pre-/postemergence herbicide test; type: in vivo, Chenopodium album; conditions: for Lambsquarters plant response rating: scale 0 to 100, 0 is no effect and 100 is complete control
Outline: as §3

pigweed = assay: Test C pre-/postemergence herbicide test; type: in vivo, Amaranthus retroflexus; conditions: for Pigweed plant response rating: scale 0 to 100, 0 is no effect and 100 is complete control
Outline: as §3

ragweed = assay: Test C pre-/postemergence herbicide test; type: in vivo, Ambrosia elatior; conditions: for Ragweed plant response rating: scale 0 to 100, 0 is no effect and 100 is complete control
Outline: as §3

oat, wild = assay: Test C pre-/postemergence herbicide test; type: in vivo, Avena fatua; conditions: Postemergence
Outline: as §3

[1] = Postemergence, 1000 g ai/ha, 0 to 100 scale (0 no effect, 100 complete control)
[2] = preemergence, 1000 g ai/ha, 0 to 100 scale
[3] = Postemergence, 31 g ai/ha, scale 0 (no effect) to 100 (complete control)
[4] = Postemergence, 62 g ai/ha, scale 0 to 100 (0 no effect, 100 complete control)
[5] = Postemergence, 125 g ai/ha, scale 0 to 100 (0 no effect, 100 complete control)
[6] = Postemergence, 250 g ai/ha, scale 0 to 100 (0 no effect, 100 complete control)
[7] = 31 g ai/ha, scale 0 (no effect) to 100 (complete control)
[8] = 62 g ai/ha, scale 0 to 100 (0 no effect, 100 complete control)
[9] = 125 g ai/ha, scale 0 to 100 (0 no effect, 100 complete control)
[10] = 250 g ai/ha, scale 0 to 100 (0 no effect, 100 complete control)
[11] = Postemergence, 125 g ai/ha, 0 to 100 scale, 0 no effect, 100 complete control
[12] = Postemergence, 500 g ai/ha, 0 to 100 scale (0 no effect, 100 complete control)
[13] = preemergence, 500 g ai/ha, 0 to 100 scale
[14] = Preemergence, 62 g ai/ha, scale 0 to 100
[15] = Preemergence, 125 g ai/ha, scale 0 to 100 (0 no effect, 100 complete control)
[16] = Postemergence, 31 g ai/ha, scale 0 to 100 (0 no effect, 100 complete control)
[17] = Postemergence, 62 g ai/ha, scale 0 (no effect) to 100 (complete control)

Cc1c(F)cccc1NC(=O)C1C(=O)NCC1c1ccc(F)c(F)c1 (racemic) [Compound 106]
25: Plant response rating, Crabgrass, Large (crabgrass, large; [5]) | Plant response rating, Lambsquarters (lambsquarters; [4]) | Plant response rating, Ragweed (ragweed; [3])
10: Plant response rating, Crabgrass, Large (crabgrass, large; [3]) | Plant response rating, Crabgrass, Large (crabgrass, large; [4])
0: Plant response rating, Sedge, Umbrella (sedge, umbrella; 1000 g ai/ha) | Plant response rating, Wheat (wheat (winter wheat); [3]) | Plant response rating, Wheat (wheat (winter wheat); [4]) | Plant response rating, Wheat (wheat (winter wheat); [5]) | Plant response rating, Wheat (wheat (winter wheat); [6]) | Plant response rating, Johnsongrass (johnsongrass; [3]) | Plant response rating, Johnsongrass (johnsongrass; [4]) | Plant response rating, Johnsongrass (johnsongrass; [5]) | Plant response rating, Johnsongrass (johnsongrass; [6]) | Plant response rating, Lambsquarters (lambsquarters; [3]) | Plant response rating, Lambsquarters (lambsquarters; [5]) | Plant response rating, Lambsquarters (lambsquarters; [6]) | Plant response rating, Pigweed (pigweed; [3]) | Plant response rating, Pigweed (pigweed; [4]) | Plant response rating, Ragweed (ragweed; [4]) | Plant response rating, Ragweed (ragweed; [5]) | Plant response rating, Oat, Wild (oat, wild; [7]) | Plant response rating, Oat, Wild (oat, wild; [8]) | Plant response rating, Oat, Wild (oat, wild; [9]) | Plant response rating, Oat, Wild (oat, wild; [10])
30: Plant response rating, Corn (corn; [2]) | Plant response rating, Pigweed (pigweed; [6])
60: Plant response rating, Crabgrass, Large (crabgrass, large; [6])
90: Plant response rating, Foxtail, Giant (giant foxtail; [1]) | Plant response rating, Foxtail, Giant (giant foxtail; [2]) | Plant response rating, Ducksalad (ducksalad; 1000 g ai/ha)
5: Plant response rating, Pigweed (pigweed; [5]) | Plant response rating, Ragweed (ragweed; [6])
50: Plant response rating, Corn (corn; [1])
15: Plant response rating, Rice (rice; 1000 g ai/ha)

Cc1ccccc1NC(=O)C1C(=O)NCC1c1cccc(C(F)(F)F)c1 (racemic) [Compound 109]
10: Plant response rating, Wheat (wheat (winter wheat); [14]) | Plant response rating, Crabgrass, Large (crabgrass, large; [3]) | Plant response rating, Crabgrass, Large (crabgrass, large; [4]) | Plant response rating, Johnsongrass (johnsongrass; [14]) | Plant response rating, Pigweed (pigweed; [6]) | Plant response rating (scale of 0 to 100), Ragweed (ragweed; Preemergence, 250 g ai/ha)
70: Plant response rating, Crabgrass, Large (crabgrass, large; [6]) | Plant response rating (scale of 0 to 100), Johnsongrass (johnsongrass; Preemergence, 250 g ai/ha)
50: Plant response rating, Corn (corn; [11]) | Plant response rating, Wheat (wheat (winter wheat); [15])
80: Plant response rating, Corn (corn; [12]) | Plant response rating, Sedge, Umbrella (sedge, umbrella; 1000 g ai/ha)
95: Plant response rating, Ducksalad (ducksalad; 1000 g ai/ha)
100: Plant response rating, Crabgrass, Large (crabgrass, large; [14]) | Plant response rating, Crabgrass, Large (crabgrass, large; [15]) | Plant response rating (scale of 0 to 100), Crabgrass, Large (crabgrass, large; Preemergence, 250 g ai/ha)
90: Plant response rating, Foxtail, Giant (giant foxtail; [11]) | Plant response rating, Foxtail, Giant (giant foxtail; [12]) | Foxtail, Giant plant response rating (giant foxtail; Preemergence, 125 g ai/ha, visual rating on 0 to 100 scale (0 no effect, 100 complete control)) | Plant response rating, Foxtail, Giant (giant foxtail; [13])
30: Pigweed plant response rating (pigweed; Preemergence, 31 g ai/ha)
5: Plant response rating, Lambsquarters (lambsquarters; [6]) | Plant response rating, Lambsquarters (lambsquarters; [15]) | Plant response rating, Pigweed (pigweed; [3]) | Plant response rating, Pigweed (pigweed; [4]) | Plant response rating, Pigweed (pigweed; [5]) | Plant response rating, Ragweed (ragweed; [6])
98: Crabgrass, Large plant response rating (crabgrass, large; Preemergence, 31 g ai/ha)
0: Plant response rating, Rice (rice; 1000 g ai/ha) | Plant response rating, Wheat (wheat (winter wheat); [3]) | Plant response rating, Wheat (wheat (winter wheat); [4]) | Plant response rating, Wheat (wheat (winter wheat); [5]) | Plant response rating, Wheat (wheat (winter wheat); [6]) | Wheat plant response rating (wheat (winter wheat); Preemergence, 31 g ai/ha) | Plant response rating, Johnsongrass (johnsongrass; [3]) | Plant response rating, Johnsongrass (johnsongrass; [4]) | Plant response rating, Johnsongrass (johnsongrass; [5]) | Plant response rating, Johnsongrass (johnsongrass; [6]) | Johnsongrass plant response rating (johnsongrass; Preemergence, 31 g ai/ha) | Plant response rating, Lambsquarters (lambsquarters; [3]) | Plant response rating, Lambsquarters (lambsquarters; [4]) | Plant response rating, Lambsquarters (lambsquarters; [5]) | Lambsquarters plant response rating (lambsquarters; Preemergence, 31 g ai/ha) | Plant response rating, Lambsquarters (lambsquarters; [14]) | Plant response rating (scale of 0 to 100), Lambsquarters (lambsquarters; Preemergence, 250 g ai/ha) | Plant response rating, Pigweed (pigweed; [14]) | Plant response rating, Pigweed (pigweed; [15]) | Plant response rating, Ragweed (ragweed; [3]) | Plant response rating, Ragweed (ragweed; [4]) | Plant response rating, Ragweed (ragweed; [5]) | Ragweed plant response rating (ragweed; Preemergence, 31 g ai/ha) | Plant response rating, Ragweed (ragweed; [14]) | Plant response rating, Ragweed (ragweed; [15]) | Plant response rating, Oat, Wild (oat, wild; [7]) | Plant response rating, Oat, Wild (oat, wild; [8]) | Plant response rating, Oat, Wild (oat, wild; [9]) | Plant response rating, Oat, Wild (oat, wild; [10])
40: Plant response rating, Crabgrass, Large (crabgrass, large; [5]) | Plant response rating, Johnsongrass (johnsongrass; [15])
20: Plant response rating (scale of 0 to 100), Pigweed (pigweed; Preemergence, 250 g ai/ha)
85: Plant response rating (scale of 0 to 100), Wheat (wheat (winter wheat); Preemergence, 250 g ai/ha)

O=C1NCC(c2ccc(F)cc2)C1C(=O)Nc1ccc(F)c(F)c1F (racemic) [Compound 120]
50: Pigweed plant response rating (pigweed; Preemergence, 31 g ai/ha)
80: Plant response rating, Foxtail, Giant (giant foxtail; [11]) | Plant response rating, Corn (corn; [12]) | Plant response rating (scale of 0 to 100), Pigweed (pigweed; Preemergence, 250 g ai/ha) | Plant response rating (scale of 0 to 100), Ragweed (ragweed; Preemergence, 250 g ai/ha)
60: Plant response rating, Lambsquarters (lambsquarters; [5]) | Plant response rating, Pigweed (pigweed; [6])
70: Plant response rating, Crabgrass, Large (crabgrass, large; [17]) | Plant response rating, Crabgrass, Large (crabgrass, large; [5]) | Plant response rating, Lambsquarters (lambsquarters; [6]) | Plant response rating, Lambsquarters (lambsquarters; [14])
10: Wheat plant response rating (wheat (winter wheat); Preemergence, 31 g ai/ha)
30: Plant response rating, Wheat (wheat (winter wheat); [15])
90: Plant response rating, Foxtail, Giant (giant foxtail; 125 g ai/ha, visual rating, 0 to 100 scale, 0 no effect, 100 complete control, approximately 10 days, preemergence) | Foxtail, Giant plant response rating (0 to 100 scale, 0 is no effect, 100 is complete control) (giant foxtail; Postemergence, 500 g ai/ha) | Plant response rating, Foxtail, Giant (giant foxtail; [13]) | Plant response rating (scale of 0 to 100), Lambsquarters (lambsquarters; Preemergence, 250 g ai/ha)
5: Plant response rating, Pigweed (pigweed; [16])
25: Plant response rating, Johnsongrass (johnsongrass; [15])
98: Crabgrass, Large plant response rating (crabgrass, large; Preemergence, 31 g ai/ha)
100: Plant response rating, Ducksalad (ducksalad; 500 g ai/ha) | Plant response rating, Crabgrass, Large (crabgrass, large; [14]) | Plant response rating, Crabgrass, Large (crabgrass, large; [15]) | Plant response rating (scale of 0 to 100), Crabgrass, Large (crabgrass, large; Preemergence, 250 g ai/ha)
65: Plant response rating (scale of 0 to 100), Johnsongrass (johnsongrass; Preemergence, 250 g ai/ha) | Plant response rating, Pigweed (pigweed; [15])
45: Plant response rating, Pigweed (pigweed; [14]) | Plant response rating, Ragweed (ragweed; [17]) | Plant response rating, Ragweed (ragweed; [6])
55: Plant response rating, Crabgrass, Large (crabgrass, large; [16]) | Plant response rating, Lambsquarters (lambsquarters; [16]) | Plant response rating, Lambsquarters (lambsquarters; [17]) | Plant response rating, Ragweed (ragweed; [15])
85: Plant response rating (scale of 0 to 100), Wheat (wheat (winter wheat); Preemergence, 250 g ai/ha) | Plant response rating, Lambsquarters (lambsquarters; [15])
40: Plant response rating, Pigweed (pigweed; [5]) | Plant response rating, Ragweed (ragweed; [5])
35: Plant response rating, Wheat (wheat (winter wheat); [14]) | Lambsquarters plant response rating (lambsquarters; Preemergence, 31 g ai/ha)
75: Plant response rating, Crabgrass, Large (crabgrass, large; [6])
20: Plant response rating, Corn (corn; [11]) | Plant response rating, Rice (rice; 500 g ai/ha) | Plant response rating, Pigweed (pigweed; [17]) | Plant response rating, Ragweed (ragweed; [16]) | Plant response rating, Ragweed (ragweed; [14])
0: Plant response rating, Sedge, Umbrella (sedge, umbrella; 500 g ai/ha) | Plant response rating, Wheat (wheat (winter wheat); [16]) | Plant response rating, Wheat (wheat (winter wheat); [17]) | Plant response rating, Wheat (wheat (winter wheat); [5]) | Plant response rating, Wheat (wheat (winter wheat); [6]) | Plant response rating, Johnsongrass (johnsongrass; [16]) | Plant response rating, Johnsongrass (johnsongrass; [17]) | Plant response rating, Johnsongrass (johnsongrass; [5]) | Plant response rating, Johnsongrass (johnsongrass; [6]) | Johnsongrass plant response rating (johnsongrass; Preemergence, 31 g ai/ha) | Plant response rating, Johnsongrass (johnsongrass; [14]) | Ragweed plant response rating (ragweed; Preemergence, 31 g ai/ha) | Plant response rating, Oat, Wild (oat, wild; 31 g ai/ha, scale 0 to 100 (0 no effect, 100 complete control)) | Plant response rating, Oat, Wild (oat, wild; 62 g ai/ha, scale 0 (no effect) to 100 (complete control)) | Plant response rating, Oat, Wild (oat, wild; [9]) | Plant response rating, Oat, Wild (oat, wild; [10])
